In the test the target is human PDE2A1 (Homo sapiens (Human), UniProt O00408). Briefly: IMAP FP PDE selectivity panel, human PDE2A1. The test is classed as biochemical. As to conditions: Human PDE2, Lab B; read-out: Human PDE2 Ki (nM) - Lab B. The method, boiled down: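 GST-tagged human PDE2A1 expressed in insect cells, run at room temperature for 60 min with 50 nM FAM-cAMP containing 1000 nM cGMP, pH 7.2 Tris/MgCl2 buffer. IMAP fluorescence polarization read after binding step.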

The record followed here is patent US9815796B2 (Merck Sharp & Dohme Corp., priority 2013, dated 2017).

human PDE2A1, sequence (O00408 other isoform, or with tags, fused parts or gaps): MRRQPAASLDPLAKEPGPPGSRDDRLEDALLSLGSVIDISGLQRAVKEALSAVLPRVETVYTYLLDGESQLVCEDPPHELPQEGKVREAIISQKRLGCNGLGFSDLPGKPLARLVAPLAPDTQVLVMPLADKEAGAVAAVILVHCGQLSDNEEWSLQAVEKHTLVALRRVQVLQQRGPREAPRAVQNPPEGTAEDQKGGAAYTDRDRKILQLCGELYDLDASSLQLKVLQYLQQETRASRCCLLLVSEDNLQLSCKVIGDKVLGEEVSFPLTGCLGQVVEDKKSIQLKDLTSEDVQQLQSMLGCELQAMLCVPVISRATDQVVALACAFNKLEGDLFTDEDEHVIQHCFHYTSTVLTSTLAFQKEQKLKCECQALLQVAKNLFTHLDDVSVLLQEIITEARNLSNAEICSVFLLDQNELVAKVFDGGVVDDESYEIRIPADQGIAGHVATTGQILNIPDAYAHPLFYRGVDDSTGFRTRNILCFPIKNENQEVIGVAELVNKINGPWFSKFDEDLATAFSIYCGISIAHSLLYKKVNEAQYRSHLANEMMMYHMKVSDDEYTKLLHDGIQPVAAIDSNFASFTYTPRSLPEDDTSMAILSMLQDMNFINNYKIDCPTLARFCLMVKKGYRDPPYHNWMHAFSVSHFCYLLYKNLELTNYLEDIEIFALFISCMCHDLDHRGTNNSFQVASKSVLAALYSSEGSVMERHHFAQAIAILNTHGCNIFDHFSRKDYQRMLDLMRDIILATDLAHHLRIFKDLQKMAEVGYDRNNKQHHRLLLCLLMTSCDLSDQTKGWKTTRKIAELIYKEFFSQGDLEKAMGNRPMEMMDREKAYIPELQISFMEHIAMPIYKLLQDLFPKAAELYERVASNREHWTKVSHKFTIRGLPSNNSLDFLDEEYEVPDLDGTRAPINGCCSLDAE

Turning to `CCC(C)(NC(=O)c1cc(=O)[nH]c(C)n1)c1ccc(C(F)(F)F)cc1F` (single isomer, unassigned) [Example 718, (S)- or (R)-N-(2-(2-fluoro-4-(trifluoromethyl)phenyl)butan-2-yl)-2-methyl-6-oxo-1,6-dihydropyrimidine-4-carboxamide], the Ki was 39 nM.
With `Cc1nc(C(=O)N[C@@H](c2ccc3c(c2)OC(F)(F)O3)C2(C)CC2)cc(=O)[nH]1` [Example 634, N-[(R)-(2,2-difluoro-1,3-benzodioxol-5-yl)(1-methylcyclopropyl)methyl]-2-methyl-6-oxo-1,6-dihydropyrimide-4-carboxamide] the figure was 29 nM; with `Cc1nc(C(=O)NC2(c3ccc(C(F)F)c(F)c3)CC2)cc(=O)[nH]1` [Example 655, N-{l-[4-(difluoromethyl)-3-fluorophenyl]cyclopropyl}-2-methyl-6-oxo-1,6-dihydropyrimidine-4-carboxamide], 64 nM.
Consider `CC(C)(C)[C@@H](NC(=O)c1cc(=O)[nH]c(-c2ccccc2)n1)c1ccc(C2CC2)c(F)c1` [Example 539, N-[(1R)-1-(4-cyclopropyl-3-fluorophenyl)-2,2-dimethylpropyl]-6-oxo-2-phenyl-1,6-dihydropyrimidine-4-carboxamide], for which the inhibition constant (Ki) turned out to be 1.2 nM.
Consider `Cc1nc(C(=O)N[C@](C)(CO)c2ccc(C(F)(F)F)cc2)cc(=O)[nH]1` [Example 636, N-{(1S)-2-hydroxy-1-methyl-1-[4-(trifluoromethyl)phenyl]ethyl}-2-methyl-6-oxo-1,6-dihydropyrimidine-4-carboxamide], for which the Ki is 19 nM.
Regarding `CC(C)(NC(=O)c1cc(=O)[nH]c(-c2ncccn2)n1)c1ccc(C(F)(F)F)cc1F` [Example 573, N-{1-[2-fluoro-4-(trifluoromethyl)phenyl]-1-methylethyl}-6-oxo-1,6-dihydro-2,2′-bipyrimidine-4-carboxamide], the inhibition constant Ki was 88 nM.
In the case of `Cc1nc(C(=O)NC(C)(C)c2ccc(C(F)(F)F)cc2C)cc(=O)[nH]1` [Example 595, 2-methyl-N-{1-methyl-1-[2-methyl-4-(trifluoromethyl)phenyl]ethyl}-6-oxo-1,6-dihydropyrimidine-4-carboxamide], the inhibition constant (Ki) came to 37 nM.
As for `COc1cc(C(F)(F)F)ccc1C(C)(C)NC(=O)c1cc(=O)[nH]c(-c2ncccn2)n1` [Example 572, N-{1-[2-methoxy-4-(trifluoromethyl)phenyl]-1-methylethyl}-6-oxo-1,6-dihydro-2,2′-bipyrimidine-4-carboxamide], the figure is 741 nM; as for `CC(C)(C)[C@@H](NC(=O)c1cc(=O)[nH]c(-c2ncccn2)n1)c1ccc(CC(F)(F)F)cc1` [Example 558, N-[(1R)-2,2-dimethyl-1-[4-(2,2,2-trifluoroethyl)phenyl]propyl}-6-oxo-1,6-dihydro-2,2′-bipyrimidine-4-carboxamide], 35 nM; as for `CC(C)(C)[C@@H](NC(=O)c1cc(=O)[nH]c(-c2ncccn2)n1)c1ccc(S(F)(F)(F)(F)F)cc1` [Example 566, N-{(1R)-2,2-dimethyl-1-[4-(pentafluoro-λ^6-sulfanyl)phenyl]propyl}-6-oxo-1,6-dihydro-2,2′-bipyrimidine-4-carboxamide], 4.3 nM.
As for `CC[C@@H](NC(=O)c1cc(=O)[nH]c(C)n1)c1ccc2c(c1)OC(F)(F)O2` [Example 632, N-[(1R)-1-(2,2-difluoro-1,3-benzodioxol-5-yl)propyl]-2-methyl-6-oxo-1,6-dihydropyrimidine-4-carboxamide], the figure is 106 nM.
With `CC(NC(=O)c1cc(=O)[nH]c(-c2ccccc2)n1)c1ccc(C(C)(C)C(F)(F)F)cc1` (single isomer, unassigned) [Example 699, (R)- or (S)-6-oxo-2-phenyl-N-(1-(4-(1,1,1-trifluoro-2-methylpropan-2-yl)phenyl)ethyl)-1,6-dihydropyrimidine-4-carboxamide] the figure was 103 nM.

The term Ki denotes a dissociation constant, usually derived from enzyme kinetics or from competition with a known ligand.
